Assay results published in PMC9696794, “Synthesis and Antimicrobial Activity of Short Analogues of the Marine Antimicrobial Peptide Turgencin A: Effects of SAR Optimizations, Cys-Cys Cyclization and Lipopeptide Modifications” (International Journal of Molecular Sciences, 2022).
Values after ≈ are worked out from the molar mass of the structure shown. Where a SMILES comes first, the peptide text is derived from it. Bridges are numbered along the chain shown (N, C = ends). The star is where a group is joined. Decanoyl = CCCCCCCCCC(=O)*

Assays:
[1] = system: B. subtilis (Bs, ATCC 23857); assay: microbe, parasite or virus in culture; assay type: cell-based, Bacillus subtilis; conditions: ATCC 23857, 24 h
Summary of the method: (§1)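 Cultures grown in Mueller–Hinton broth were adjusted by OD600 to 2.5–3 × 10^4 CFU/mL and mixed with two-fold peptide dilutions from 256 to 1 µg/mL. Plates were incubated at 35 °C with OD595 monitored every hour for 24 h.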

[2] = system: C. glutamicum (Cg, ATCC 13032); assay: microbe, parasite or virus in culture; assay type: cell-based, Corynebacterium glutamicum; conditions: ATCC 13032, 24 h
Summary of the method: as §1

[3] = system: S. aureus (Sa, ATCC 9144); assay: microbe, parasite or virus in culture; assay type: cell-based, Staphylococcus aureus; conditions: ATCC 9144, 24 h
Summary of the method: as §1

[4] = system: S. epidermidis RP62A (Se, ATCC 35984); assay: microbe, parasite or virus in culture; assay type: cell-based, Staphylococcus epidermidis; conditions: ATCC 35984, 24 h
Summary of the method: as §1

E. coli (Ec, ATCC 25922) = assay: microbe, parasite or virus in culture; assay type: cell-based, Escherichia coli; conditions: ATCC 25922, 24 h
Summary of the method: as §1

[5] = system: P. aeruginosa (Pa, ATCC 27853); assay: microbe, parasite or virus in culture; assay type: cell-based, Pseudomonas aeruginosa; conditions: ATCC 27853, 24 h
Summary of the method: as §1

all bacterial strains = assay: Antibacterial MIC assay, all bacterial strains together (range or geometric mean); assay type: cell-based; conditions: for GM (geometric mean of the MIC values against all bacterial strains): Table 1, six bacterial strains; for GM of MIC Tot. bact.: Table S3, all bacterial test strains, MIC >256 set to 256
Summary of the method: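 Broth microdilution in Mueller–Hinton broth against B. subtilis, C. glutamicum, S. aureus, S. epidermidis RP62A, E. coli and P. aeruginosa; inoculum 2.5–3 × 10^4 CFU/mL, 35 °C, OD595 read hourly for 24 h. MIC: lowest peptide concentration giving OD below 10% of growth control; geometric mean across strains, triplicate.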

A. pullulans (Ap) = assay: microbe, parasite or virus in culture; assay type: cell-based, Aurobasidium pollulans; conditions: 48 h
Summary of the method: (§2)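 Overnight cultures in potato dextrose broth with 2% glucose at 25–30 °C were diluted to approx. 4 × 10^5 spores/mL and mixed 1:1 with two-fold peptide dilutions plated at 256 to 1 µg/mL. After 48 h at room temperature, OD600 was read. MIC was the lowest concentration giving OD below 10% of the growth control, in triplicate.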

[6] = system: C. albicans (Ca, ATCC 10231); assay: microbe, parasite or virus in culture; assay type: cell-based, Candida albicans; conditions: ATCC 10231, 48 h
Summary of the method: as §2

Rhodotorula sp. (Rh) = assay: microbe, parasite or virus in culture; assay type: cell-based; conditions: 48 h
Summary of the method: as §2

[7] = system: human red blood cells (RBC); assay: Haemolytic activity assay; assay type: cell-based; conditions: for Selectivity index (SI) G-: EC50/GM of Gram-negative strains; for Selectivity index (SI) G+: EC50/GM of Gram-positive strains; for RBC Tox. (EC50), haemolytic activity: human RBC, 1 h, 37 °C, concentration giving 50% haemolysis
Summary of the method: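 Washed human erythrocytes (1% hematocrit final) incubated 1 h at 37 °C with agitation with lipopeptides at 500–3.9 μM in PBS (≤1% DMSO), duplicates. Haemoglobin release read at 545 nm relative to 0.1% Triton X-100; EC50 is 50% haemolysis, averaged from three experiments.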

[8] = system: E. coli MC4100 (wild type, WT); assay: microbe, parasite or virus in culture; conditions: wild type
Experimental: (§3) All cyclic and linear peptides were screened for antibacterial activity against four Gram-positive strains: B. subtilis (Bs, ATCC 23857), C. glutamicum (Cg, ATCC 13032), S. aureus (Sa, ATCC 9144) and S. epidermidis RP62A (Se, ATCC 35984), and two Gram-negative strains: E. coli (Ec, ATCC 25922) and P. aeruginosa (Pa, ATCC 27853). The activity was assessed using a broth microdilution assay according to a modified CLSI-based method. Briefly, overnight bacterial cultures were grown in Mueller–Hinton (MH) broth medium (Difco Laboratories, Detroit, MI, USA) for 2 h at room temperature. The optical density (OD600) was measured, and the bacterial suspensions were adjusted to 2.5–3 × 10^4 CFU/mL in MH medium. The bacterial suspension (50 µL) was distributed in 96-well plates (Nunc, Roskilde, Denmark) preloaded with two-fold dilution series (256 to 1 µg/mL) of peptide solutions (50 µL), giving a final well volume of 100 µL. The microplates were incubated in an EnVision 2103 microplate reader (PerkinElmer, Llantrisant, UK) at 35 °C, with OD595 recorded every hour for 24 h. MIC was defined as the lowest concentration of peptides showing an optical density less than 10% of the negative (growth) control, consisting of bacterial suspension and water. Polymyxin B sulfate (Sigma-Aldrich, St. Louis, MO, USA) and chlorhexidine acetate (CHX, Fresenius Kabi, Halden, Norway), both with concentrations ranging from 12.5 to 0.09 μg/mL, served as positive (growth inhibition) controls. All peptides were tested in triplicate.
(§4) MIC values were determined for all cyclic peptides against two E. coli strains: wild type (WT) MC4100 and the hyperpermeable variant NR698, having a deficient outer membrane. The NR698 strain, containing lptD4213/imp4213 mutation, was kindly provided by M. Grabowicz (Emory University School of Medicine, Rollins Research Center, Atlanta, GA, USA). The assay was performed in the same way as previously described for the antibacterial MIC assay.

[9] = system: E. coli NR698 (outer membrane permeable mutant, imp4213); assay: microbe, parasite or virus in culture; conditions: MC4100 NR698 imp4213, deficient outer membrane
Experimental: as §3, §4

[10] = system: Gram-positive bacterial strains; conditions: for GM of MIC G+: Table S3, MIC >256 set to 256
Summary of the method: as §1

[11] = system: Gram-negative bacterial strains (E. coli and P. aeruginosa); assay: Antibacterial MIC assay, Gram-negative strains together (range or geometric mean); assay type: cell-based; conditions: Table S3; MIC >256 set to 256
Summary of the method: as §1

[12] = system: fungi (A. pullulans, C. albicans, Rhodotorula sp.); assay: Antifungal MIC assay, all fungi together (range or geometric mean); assay type: cell-based; conditions: Table S3; MIC >128 set to 128
Summary of the method: as §2

[13] = Table S3, highest tested concentration used where EC50 above it

Row | SMILES | Antimicrobial Activity (MIC) Gram + Bs [1] | Antimicrobial Activity (MIC) Gram + Cg [2] | Antimicrobial Activity (MIC) Gram + Sa [3] | Antimicrobial Activity (MIC) Gram + Se [4] | Antimicrobial Activity (MIC) Gram − Ec (E. coli (Ec, ATCC 25922)) | Antimicrobial Activity (MIC) Gram − Pa [5] | GM (geometric mean of the MIC values against all bacterial strains) (all bacterial strains) | GM of MIC Tot. bact. (all bacterial strains) | Antimicrobial Activity (MIC) Fungi Ap (A. pullulans (Ap)) | Antimicrobial Activity (MIC) Fungi Ca [6] | Antimicrobial Activity (MIC) Fungi Rh (Rhodotorula sp. (Rh)) | Selectivity index (SI) G- [7, 13] | Selectivity index (SI) G+ [7, 13] | RBC Tox. (EC50), haemolytic activity [7] | MIC E. coli MC4100 (WT) [8] | MIC E. coli NR698 (mutant) [9] | GM of MIC G+ [10] | GM of MIC G- [11] | GM of MIC Fungi [12] | other results
1 | CC(C)C[C@H](NC(=O)[C@H](CCCNC(=N)N)NC(=O)[C@@H]1CSSC[C@H](N)C(=O)NCC(=O)N[C@@H](CCCNC(=N)N)C(=O)N[C@@H](CCCNC(=N)N)C(=O)N[C@@H](Cc2c[nH]c3ccccc23)C(=O)NCC(=O)N[C@@H](Cc2c[nH]c3ccccc23)C(=O)N[C@@H](Cc2c[nH]c3ccccc23)C(=O)N[C@@H](CCCNC(=N)N)C(=O)N1)C(N)=O [cTurg-6] (H-CGRRWGWWRCRL-NH2; disulfide 1-10; N-terminus assumed) | 4 µg/mL | 4 µg/mL | 16 µg/mL | 8 µg/mL | 8 µg/mL | 16 µg/mL | 8 µg/mL | 8 µg/mL | 32 µg/mL | 32 µg/mL | 32 µg/mL | > 97 | > 164 | > 1045 µg/mL | 8 µg/mL (≈ 4.9 µM) | 8 µg/mL (≈ 4.9 µM) | 7 µg/mL | 11 µg/mL | 32 µg/mL | Selectivity index (SI) Fungi ([7]; Table S3, EC50/GM of fungi, highest tested concentration used where EC50 above it): > 34; MIC against the Gram-positive bacterial strains ([10]; 2 h): 4 to 16 µg/mL
2 | CCCCCCCCCC(=O)N[C@H]1CSSC[C@@H](C(=O)N[C@@H](CCCNC(=N)N)C(=O)N[C@@H](CC(C)C)C(N)=O)NC(=O)[C@H](CCCNC(=N)N)NC(=O)[C@H](Cc2c[nH]c3ccccc23)NC(=O)[C@H](Cc2c[nH]c3ccccc23)NC(=O)CNC(=O)[C@H](Cc2c[nH]c3ccccc23)NC(=O)[C@H](CCCNC(=N)N)NC(=O)[C@H](CCCNC(=N)N)NC(=O)CNC1=O [Peptide C10-cTurg-6, C10- (CGRRWGWWRC)RL-NH2] (Decanoyl-CGRRWGWWRCRL-NH2; disulfide 1-10) | 4 µg/mL | 4 µg/mL | 8 µg/mL | 8 µg/mL | 16 µg/mL | 16 µg/mL | 8 µg/mL | 8 µg/mL | 64 µg/mL | 64 µg/mL | 32 µg/mL | 1 | 3 | 16 µg/mL | 8 µg/mL (≈ 4.48 µM) | 8 µg/mL (≈ 4.48 µM) | 6 µg/mL | 16 µg/mL | 51 µg/mL | SI (selectivity index = EC50/GM) ([7]; haemolytic EC50 over GM of MIC against all bacterial strains, Table 1): 2
